# How the values were obtained:
# [1] = tested on: Det551; assay: AlamarBlue cell proliferation (cytotoxicity) assay; assay type: cell-based, human; conditions: 120 hours drug exposure, normal skin cells
# Method: (§1) Cells growing exponentially were transferred to 384-well flat bottom tissue culture plates. […] After 24 hours (day 0), 25 µL of complete medium containing the compounds over the dose range of 10^-3 to 10^-10 M were added in triplicate. Drug exposure time was 120 hours (day 5), after which growth inhibition was assayed. 5 µL of the redox indicator, alamarBlue, was added to each well (10% v/v).
# (§2) Numbering in Tables 5 and 6 refer to the structures, shown infra. […] MCF7-TDX was derived from MCF7 breast tumor cells via selection in cell culture in the presence of Tomudex, a direct inhibitor of TS. […] Similarly, H630R10 is a 5FU (fluoropyrimidine) resistant colon cancer epithelial cell line derived from H630 colon cancer cells. […] HT1080, #12, is a fibrosarcoma tumor cell line that expresses high levels ofTS via a transgene introduced into HT1080 tumor cells. Normal cell lines used in these assays include CCD180co (normal colon epithelium) and Det551 (normal skin).
# [2] = tested on: CCd18co; assay: AlamarBlue cell proliferation (cytotoxicity) assay; assay type: cell-based, human; conditions: 120 hours drug exposure, normal colon epithelium cells
# Method: as §1, §2
# [3] = tested on: H630R10; assay: AlamarBlue cell proliferation (cytotoxicity) assay; assay type: cell-based, human; conditions: 120 hours drug exposure, dose range 10^-3 to 10^-10 M
# Method: as §1, §2
# [4] = tested on: MCF7TDX; assay: AlamarBlue cell proliferation (cytotoxicity) assay; assay type: cell-based, human; conditions: 120 hours drug exposure, dose range 10^-3 to 10^-10 M
# Method: as §1, §2
# [5] = tested on: HT1080; assay: AlamarBlue cell proliferation (cytotoxicity) assay; assay type: cell-based; conditions: dose range 10^-3 to 10^-10 M
# Method: as §1, §2
# [6] = tested on: Normal Cells; assay: Crystal violet cell proliferation inhibition assay, mean over normal cells; assay type: cell-based, human; conditions: mean of the CCD18co and Det551 columns
# Method: (§3) Compound concentrations from 1 µM to 3000 µM were tested.
# as §2
# [7] = tested on: Tumor Cells; assay: AlamarBlue cell proliferation (cytotoxicity) assay, mean over tumor cells; assay type: cell-based; conditions: for mean IC30 over tumor cell lines: alamarBlue, mean of the MCF7TDX, H630R10 and HT1080 (µM); for activity (in words, summary of Tables 5 and 6): text comment on the cytotoxicity data
# Method: as §1, §2
# [8] = tested on: Tumor Cells; assay: Crystal violet cell proliferation inhibition assay, mean over tumor cells; assay type: cell-based
# Method: as §3, §2
# [9] = tested on: Normal Cells; assay: AlamarBlue cell proliferation (cytotoxicity) assay, mean over normal cells; assay type: cell-based, human; conditions: mean of CCd18co and Det551 (µM)
# Method: as §1, §2
# [10] = tested on: HT1080 # 12; assay: Crystal violet cell proliferation inhibition assay; assay type: cell-based; conditions: high TS via transgene
# Method: as §3, §2
# (§4) Table 7. Cytotoxic Activity of NB1024 Isomers
# [11] = tested on: H630R10; assay: Crystal violet cell proliferation inhibition assay; assay type: cell-based, human; conditions: 72 hours incubation
# Method: as §3, §2
# [12] = tested on: MCF7TDX (Tomudex resistant breast cancer cell line)
# Method: (§5) 100 µM of BVdU was added to each dish and the cells continued to grow for 2 days at 37°C. After that, the medium was aspirated and the cells were washed twice with phosphate buffered saline (PBS). Then 1 ml of PBS per dish was added and the dishes were placed in a -80°C freezer. The cells were disrupted via freezing/thawing procedure, repeated twice. The cell debris in the resulting suspension were spun down (13,000 rpm,10 minutes) and the supernatant was deproteinized by passing though a Centrifugal Filter Device (Centrifree, 30,000 cut-off, Amicon) by centrifugation at 5,000 rpm for 30 minutes on Sorvall Super T21 centrifuge (Rotor SL-50-T, 1,912 g) at 20°C. The pass-through was concentrated to the volume of 100 µl, and injected onto an HPLC column (Adsorbosphere HS, C18, 5 µm, 4.6 mm x 150 mm, Alltech). The samples were analyzed using acetonitrile gradient in water containing trifluoroacetic acid. The peaks were detected at 300 mm the maximum of absorption of BVdU-derivatives, and the amounts of compounds were expressed as peak area at 300 nm. […]
# (§6) The amounts of reference compounds BVdUMP or BVdU present in lysates call lines MCF7, MCF7TDX, and H630R10 each treated with BVdU, are expressed as an area of a corresponding HPLC peak at 300 nm. […]
# (§7) Cells were incubated in complete media with 100 µm BVdU. Lysates were prepared and BVdUMP and BVdU levels were determined.
# [13] = tested on: MCF7 (breast cancer cell line)
# Method: as §5, §6, §7
# [14] = tested on: H630R10 (5-FU resistant colon cancer cell line)
# Method: as §5, §6, §7
# [15] = tested on: H630R10 (5-FU resistant colon cancer cell line); assay: Amount of nucleoside and monophosphate in cells (HPLC of lysates after BVdU treatment); conditions: 2 days treatment with 100 µm BVdU
# Method: as §5, §6, §7
# [16] = tested on: Det551; assay: Crystal violet cell proliferation inhibition assay; assay type: cell-based; conditions: Homo sapiens, 72 hours incubation, normal skin cells
# Method: as §3, §2, §4
# [17] = tested on: CCd18co; assay: Crystal violet cell proliferation inhibition assay; assay type: cell-based; conditions: Homo sapiens, CCD-18Co, 72 hours incubation, normal colon epithelium cells
# Method: as §3, §2, §4
# [18] = Homo sapiens, HT-1080, 120 hours drug exposure
compound,measurement,setting,value
5-(2-Bromovinyl)-2'-Deoxyuridine Phenyl N-Methoxy-L-alaninyl Phosphoramidate [NB1011],IC50,[1],398 µM
same,IC50,[2],414 µM
same,IC30,[3],82 µM
same,IC30,[4],2 µM
same,IC30,[5]; 120 hours drug exposure,182 µM
same,IC50,[6],382 µM
same,mean IC30 over tumor cell lines,[7],88.7 µM
same,IC50,[8]; mean of the H630R10 and HT1080 # 12 columns (uM),65.6 µM
same,IC50,[9],406 µM
same,IC50,[10]; 72 hours incubation,1.2 µM
same,IC50,[11],130 µM
O=c1[nH]c(=O)n([C@H]2C[C@H](O)[C@@H](COP(=O)(O)O)O2)cc1/C=C/Br [BVdUMP],"amount present in cell lysate, expressed as area of the HPLC peak at 300 nm",[12],10.9
same,"amount present in cell lysate, expressed as area of the HPLC peak at 300 nm",[13],63.7
same,"amount present in cell lysate, expressed as area of the HPLC peak at 300 nm",[14],< 1
COC(=O)[C@H](C)NP(=O)(OC[C@H]1O[C@@H](n2cc(/C=C/Cl)c(=O)[nH]c2=O)C[C@@H]1O)Oc1ccccc1 (some centres unmarked) [NB1013],IC50,[1],570 µM
same,IC30,[3],92 µM
same,IC30,[4],26 µM
same,mean IC30 over tumor cell lines,[7],59 µM
same,IC50,[9],570 µM
"O=c1[nH]c(=O)n([C@H]2C[C@H](O)[C@@H](CO)O2)cc1/C=C/Br [BVdU, (E)-5-(2-Bromovinyl)-2'-deoxyuridine, reference compound]",IC50,"[2]; Homo sapiens, CCD-18Co",1000 µM
same,IC30,[3]; Homo sapiens,201 µM
same,IC30,[4]; Homo sapiens,0.02 µM
same,IC30,[5]; [18],719 µM
same,BvdUMP/(BVdUMP + BVdU) x100,[15],< 4
same,IC50,"[6]; Homo sapiens, CCD-18Co",812 µM
same,mean IC30 over tumor cell lines,"[7]; Homo sapiens, HT-1080",307 µM
same,IC50,"[8]; Homo sapiens, HT-1080, mean of the H630R10 and HT1080 # 12 columns (uM)",206 µM
same,IC50,"[9]; Homo sapiens, CCD-18Co",1000 µM
same,IC50,[16],625 µM
same,IC50,[17],1000 µM
same,IC50,"[10]; Homo sapiens, HT-1080, 72 hours incubation",7 µM
same,IC50,[11]; Homo sapiens,405 µM
COC(=O)C(C)NP(=O)(OCC1OC(n2ccc(=O)[nH]c2=O)CC1O)Oc1ccccc1 (centres unmarked) [NB1025],IC50,[2],378 µM
same,IC30,[4],49 µM
same,IC30,[5]; 120 hours drug exposure,454 µM
same,mean IC30 over tumor cell lines,[7],232 µM
same,"activity (in words, summary of Tables 5 and 6)",[7],active
same,IC50,[9],378 µM
COC(=O)C(C)NP(=O)(OCC1OC(n2cc(C(F)(F)F)c(=O)[nH]c2=O)CC1O)Oc1ccccc1 (centres unmarked) [NB1014],IC50,[1],239 µM
same,IC30,[3],287 µM
same,IC30,[4],396 µM
same,mean IC30 over tumor cell lines,[7],342 µM
same,IC50,[9],139 µM
O=c1ccn(C2CC(O)C(CO)O2)c(=O)[nH]1 (centres unmarked) [NB1026],IC30,[3],1000 µM
same,IC30,[4],1000 µM
same,IC30,[5]; 120 hours drug exposure,1000 µM
same,"activity (in words, summary of Tables 5 and 6)",[7],little detectable activity
"O=c1[nH]c(=O)n([C@H]2C[C@H](O)[C@@H](CO)O2)cc1C=CCl [NB1020, 5-(2-chlorovinyl)-2'-deoxyuridine]",IC50,"[2]; Homo sapiens, CCD-18Co",1000 µM
same,IC30,[3]; Homo sapiens,326 µM
same,IC30,[4]; Homo sapiens,0.48 µM
same,IC30,[5]; [18],1000 µM
same,mean IC30 over tumor cell lines,"[7]; Homo sapiens, HT-1080",442 µM
same,IC50,"[9]; Homo sapiens, CCD-18Co",1000 µM

# — patent publication EP1200455B1, “ENZYME CATALYZED THERAPEUTIC ACTIVATION” (Celmed Oncology (USA), Inc., priority 1999, dated 2001)
